One test has as its system SIRT3. The settings on record: cited from earlier work.
A further test concerns SIRT5. The note with it: SIRT5 desuccinylation assay; cited from earlier work.
For another test, the system named is SIRT1. The note with it: cited from earlier work.
In a further test the test system is SIRT2. The note with it: cited from earlier work.
The target of test [1] is T1, human recombinant GST-SIRT5 (Homo sapiens, UniProt Q9NXA8).
T1 construct: purchased Cayman Chemical (Ann Arbor, Michigan, USA)
T1 sequence (Q9NXA8 37-310): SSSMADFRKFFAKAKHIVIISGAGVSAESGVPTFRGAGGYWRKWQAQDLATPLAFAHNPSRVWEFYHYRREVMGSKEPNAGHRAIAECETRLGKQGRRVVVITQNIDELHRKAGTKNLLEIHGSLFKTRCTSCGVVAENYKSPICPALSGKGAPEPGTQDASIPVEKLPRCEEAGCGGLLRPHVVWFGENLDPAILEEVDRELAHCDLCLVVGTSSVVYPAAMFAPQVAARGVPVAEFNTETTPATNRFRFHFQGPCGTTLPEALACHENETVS
In words: HPLC-based in vitro sirtuin inhibition assay, SIRT5-catalyzed deacylation (desuccinylation). Format: biochemical. The settings on record: GST-SIRT5 370 nM, 0.8 mM β-NAD+, 0.88 mM succinyl-lysine H3 peptide substrate, 37 °C, 5 min; estimated from Dixon plots. The text has this: (§1) The following materials were purchased from commercial vendors for the sirtuin inhibition assay and the pronase digestion assay, and were used as received without further treatment. Sigma-Aldrich China: the active human recombinant His6-SIRT1, Trizma, Hepes, β-NAD^+, a 1.0 M solution of MgCl2 (molecular-biology grade), the pronase from Streptomyces griseus; Cayman Chemical (Ann Arbor, Michigan, USA): the active human recombinant GST-SIRT1, the active human recombinant His6-SIRT2, the active human recombinant His6-SIRT3, the active human recombinant GST-SIRT5, the active human recombinant His6-SIRT6; TCI Shanghai: D,L-dithiothreitol (DTT); Alfa Aesar China: NaCl, KCl.
(§2) The peptide substrates prepared and used in the sirtuin inhibition assay were: the SIRT1/2/3 substrate H2N-HK-[N^ε-acetyl-lysine]-LM-COOH corresponding to amino acids 380–384 of the human p53 protein acetylated at K^382; the SIRT5 substrate CH3CONH-AR-[N^ε-succinyl-lysine]-ST-CONH2 corresponding to amino acids 7–11 of the human histone H3 protein succinylated at K^9; the SIRT6 substrate H2N-EALPK-[N^ε-myristoyl-lysine]-TGGPQ-CONH2 corresponding to amino acids 15–25 of the human tumor necrosis factor α (TNFα) myristoylated at K^20.
(§3) The HPLC-based sirtuin inhibition assay that our laboratory has been using over past several years was employed in the current study and was performed as described previously. […]

Test [2] concerns the target T2, human recombinant His6-SIRT2 (Homo sapiens, UniProt Q8IXJ6).
T2 construct: purchased Cayman Chemical (Ann Arbor, Michigan, USA)
T2 sequence (Q8IXJ6 1-389): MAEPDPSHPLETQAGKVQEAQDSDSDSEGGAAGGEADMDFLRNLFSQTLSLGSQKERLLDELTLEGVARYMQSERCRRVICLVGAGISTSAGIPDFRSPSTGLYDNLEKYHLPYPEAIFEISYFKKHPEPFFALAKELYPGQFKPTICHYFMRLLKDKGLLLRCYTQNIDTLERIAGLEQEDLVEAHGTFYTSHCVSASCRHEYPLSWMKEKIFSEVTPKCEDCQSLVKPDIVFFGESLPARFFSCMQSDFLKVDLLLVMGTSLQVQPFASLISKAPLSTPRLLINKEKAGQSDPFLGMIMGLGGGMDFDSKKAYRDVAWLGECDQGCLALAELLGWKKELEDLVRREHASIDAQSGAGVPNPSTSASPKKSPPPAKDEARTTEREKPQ
Put plainly: HPLC-based in vitro sirtuin inhibition assay, SIRT2-catalyzed deacetylation. It counts as biochemical. The note with it: His6-SIRT2 309 nM, 0.5 mM β-NAD+, 0.39 mM acetyl-lysine p53 peptide substrate, 37 °C, 12 min; Dixon plots.
Source text: as §1, §2, §3

The target in test [3] is T3, human recombinant His6-SIRT1 or GST-SIRT1 (Homo sapiens, UniProt Q96EB6).
T3 construct: His6 or GST (one of the two); purchased Sigma-Aldrich China (His6-SIRT1) or Cayman Chemical (GST-SIRT1)
T3 sequence (Q96EB6 1-747): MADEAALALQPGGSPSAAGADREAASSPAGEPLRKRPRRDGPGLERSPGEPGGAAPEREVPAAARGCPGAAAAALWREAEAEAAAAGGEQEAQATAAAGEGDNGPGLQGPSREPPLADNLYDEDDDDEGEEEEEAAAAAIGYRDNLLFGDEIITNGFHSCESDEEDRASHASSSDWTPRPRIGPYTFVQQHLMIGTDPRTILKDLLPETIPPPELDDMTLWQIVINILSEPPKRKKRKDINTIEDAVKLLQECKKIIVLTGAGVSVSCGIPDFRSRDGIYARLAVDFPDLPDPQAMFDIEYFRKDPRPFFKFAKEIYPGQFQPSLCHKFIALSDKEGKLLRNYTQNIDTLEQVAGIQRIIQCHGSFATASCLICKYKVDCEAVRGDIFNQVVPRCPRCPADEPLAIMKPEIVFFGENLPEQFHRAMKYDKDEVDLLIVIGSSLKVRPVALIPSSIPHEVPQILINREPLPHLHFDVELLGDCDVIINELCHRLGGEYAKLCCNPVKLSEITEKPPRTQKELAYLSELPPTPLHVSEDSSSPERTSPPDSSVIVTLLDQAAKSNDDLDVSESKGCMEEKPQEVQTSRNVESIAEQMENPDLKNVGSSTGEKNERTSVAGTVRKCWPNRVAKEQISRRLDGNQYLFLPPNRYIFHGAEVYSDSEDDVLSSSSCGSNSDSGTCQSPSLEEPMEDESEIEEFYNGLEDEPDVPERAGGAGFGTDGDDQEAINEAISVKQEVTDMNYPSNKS
Put plainly: HPLC-based in vitro sirtuin inhibition assay, SIRT1. The settings on record: SIRT1 320 nM, 0.5 mM β-NAD+, 0.3 mM acetyl-lysine p53 peptide substrate, 37 °C, 10 min; Dixon plots. It counts as biochemical.
Source text: as §1, §2, §3

For test [4], the target named is T4, human recombinant His6-SIRT3 (Homo sapiens, UniProt Q9NTG7).
T4 construct: purchased Cayman Chemical (Ann Arbor, Michigan, USA)
T4 sequence (Q9NTG7 1-399): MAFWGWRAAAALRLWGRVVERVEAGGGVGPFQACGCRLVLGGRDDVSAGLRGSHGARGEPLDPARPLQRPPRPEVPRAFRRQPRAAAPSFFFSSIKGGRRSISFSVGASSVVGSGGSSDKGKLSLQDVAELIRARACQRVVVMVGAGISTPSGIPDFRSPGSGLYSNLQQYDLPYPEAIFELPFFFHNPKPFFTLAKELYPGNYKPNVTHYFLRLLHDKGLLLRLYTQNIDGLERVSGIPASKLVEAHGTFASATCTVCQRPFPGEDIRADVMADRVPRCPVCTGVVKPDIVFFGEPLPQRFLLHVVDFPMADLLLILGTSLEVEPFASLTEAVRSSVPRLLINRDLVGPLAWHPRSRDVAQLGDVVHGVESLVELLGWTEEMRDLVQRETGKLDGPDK
In words: HPLC-based in vitro sirtuin inhibition assay, SIRT3. Format: biochemical. The note with it: His6-SIRT3 320 nM, 3.5 mM β-NAD+, 0.105 mM acetyl-lysine p53 peptide substrate, 37 °C, 10 min; Dixon plots.
Source text: as §1, §2, §3

Test [5] concerns the target T5, human recombinant His6-SIRT6 (Homo sapiens, UniProt Q8N6T7).
T5 construct: purchased Cayman Chemical (Ann Arbor, Michigan, USA)
In words: HPLC-based in vitro sirtuin inhibition assay, SIRT6 (demyristoylation). Format: biochemical. The note with it: His6-SIRT6 313 nM, 0.2 mM β-NAD+, 0.02 mM myristoyl-lysine TNFα peptide substrate, 37 °C, 12 min; Dixon plots.
Source text: as §1, §2, §3

Values joined by “and” are separate entries in the source; they are usually repeats but may differ in a detail not shown here. Equal entries are not always repeated. *1 amine or outer side, *2 acyl side, *3 side chain or, on linkers, in order; H or OH if unused. Where a SMILES comes first, the peptide text is derived from it. Bridges are numbered along the chain shown (N, C = ends). [ ]: non-standard residue; d: D form. Suberoyl(Gly)2 = O=C(CCCCCCC(=O)NCC(=O)[*:2])NCC(=O)[*:1]; X1 = O=C(O)CCNC(=S)NCCCC[C@H](N[*:1])C(=O)[*:2]; Suberoyl = O=C(CCCCCCC(=O)[*:2])[*:1]

T5 sequence (Q8N6T7 whole entry): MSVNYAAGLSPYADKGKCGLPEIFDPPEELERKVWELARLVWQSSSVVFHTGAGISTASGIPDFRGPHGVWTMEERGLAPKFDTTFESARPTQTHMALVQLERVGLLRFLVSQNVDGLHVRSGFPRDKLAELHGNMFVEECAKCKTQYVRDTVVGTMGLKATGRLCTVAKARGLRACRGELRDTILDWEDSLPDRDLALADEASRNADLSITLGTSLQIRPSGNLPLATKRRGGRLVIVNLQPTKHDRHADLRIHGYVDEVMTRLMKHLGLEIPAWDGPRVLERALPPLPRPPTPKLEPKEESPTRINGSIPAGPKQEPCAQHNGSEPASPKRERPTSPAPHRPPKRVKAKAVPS

For the compound `C=CCN1C(=O)/C(=C/c2ccc(-c3cccc(Cl)c3Cl)o2)C(=O)NC1=S` [Compound 3], the IC50 – broadly, the concentration needed to halve the response being measured – was > 50 µM in the test with SIRT3, 2.3 µM with SIRT5, 5.3 µM with SIRT1 and 9.7 µM with SIRT2.
In the case of `CC(=O)N[C@H]1CCCCNC(=O)CNC(=O)CCCCCCC(=O)NCC(=O)NCCCC[C@@H](C(=O)N[C@H](C(N)=O)[C@@H](C)O)NC(=O)[C@H](CCCCNC(=S)NCCC(=O)O)NC(=O)[C@H](CCCNC(=N)N)NC1=O` [Compound 4] (Ac-KR[X1]KT-NH2; linker 1-4 via Suberoyl(Gly)2), the IC50 was ~6 µM and 6 µM in [1]; ~9.2 µM and 9.2 µM in test [2].
In the case of `CC(=O)N[C@H]1CCCCNC(=O)CCCCCCC(=O)NCCCC[C@@H](C(=O)N[C@H](C(N)=O)[C@@H](C)O)NC(=O)[C@H](CCCCNC(=S)NCCC(=O)O)NC(=O)[C@H](CCCNC(=N)N)NC1=O` [Compound 5] (Ac-KR[X1]KT-NH2; linker 1-4 via Suberoyl), the “IC50 SIRT1” value in test [3] was >1000 µM. For the same compound, the IC50 in test [4] is > 200 µM; in test [1] it was ~7.5 µM and 7.5 µM; in test [5], > 200 µM; in test [2], > 1000 µM.
“CH3CONH-AR-(N^ε-thiosuccinyl-lysine)-ST-CONH2”: the IC50 with SIRT5 was ~40 µM.
As for `CC(=O)N[C@@H](C)C(=O)N[C@@H](CCCNC(=N)N)C(=O)N[C@@H](CCCCNC(=S)NCCC(=O)O)C(=O)N[C@@H](CO)C(=O)N[C@H](C(N)=O)[C@@H](C)O` [Compound 6] (Ac-AR[X1]ST-NH2), the “IC50 SIRT1” value in test [3] was >1000 µM. Further, the IC50 in test [4] was > 1000 µM; in [1], 7.6 ± 1.5 µM; in [5], > 1000 µM; in test [2], 96.4 ± 18.5 µM.
